Experiments:
[1] = tested on: mRNA containing a UGA premature termination codon; assay: biochemical in vitro translation assay, rabbit reticulocyte lysate with nonsense-containing luciferase reporter mRNA; conditions: in vitro translation reaction using rabbit reticulocyte lysate, internal standard
Text: (§1) Two assays were developed for use in high throughput screens to identify small molecules that promote nonsense suppression. Each assay utilized luciferase because it is a functional reporter gene assay (light is only produced if the protein is functional) and it is extremely sensitive (Light intensity is proportional to luciferase concentration in the nM range). The first assay is a cell-based luciferase reporter assay and the second is a biochemical assay consisting of rabbit reticulocyte lysate and a nonsense-containing luciferase reporter mRNA. In the cell-based assay, a luciferase reporter construct containing a UGA premature termination codon was stably transfected in 293T Human Embryonic Kidney cells. In the biochemical assay, mRNA containing a UGA premature termination codon was used as a reporter in an in vitro translation reaction using rabbit reticulocyte lysate supplemented with tRNA, hemin, creatine kinase, amino acids, KOAc, Mg(OAc)2, and creatine phosphate. […] Synthetic mRNA was prepared in vitro using the T7 promoter and the MegaScript in vitro transcription kit (Ambion).

[2] = tested on: luciferase reporter construct containing a UGA premature termination codon; assay: cell-based luciferase reporter assay (nonsense suppression); conditions: 293T Human Embryonic Kidney cells stably transfected with UGA luciferase reporter; internal standard
Text: as §1

luciferase activity [1]: increased luciferase activity
SMILES: CC(C)c1ccc(N2CC(=O)N(c3cccc(C(=O)O)c3)C2=O)cc1 [3-[3-(4-Isopropyl-phenyl)-2,5-dioxo-imidazolidin-1-yl]-benzoic acid]
luciferase activity [2]: increased luciferase activity

— patent US8691511B2, “Hydroxylated 1,2,4-oxadiazole benzoic acid compounds, compositions thereof and their use in bioassays” (PTC Therapeutics, Inc., priority 2006, dated 2014)
